Data on three molecules can be found in patent US20240114772A1, “ORGANIC ELECTROLUMINESCENT DEVICE” (SFC CO., LTD., priority 2021, published 2024).

The nature of the data set: Solubility evaluation at room temperature in methyl benzoate and ethyl benzoate. In kind it is physicochemical. The note with it: for solubility: room temperature, concentration of 2 wt %. Here is the method: The solubility of each of the compound prepared in the synthesis examples and the comparative compound [BH1] was measured at room temperature in methyl benzoate and ethyl benzoate. The case in which all the components were dissolved at a concentration of 2 wt % was evaluated as O, and the case in which all the components were not dissolved was evaluated as X, and the results are shown in the following Table 1.

SMILES strings stand for the structures. Some results are limits rather than exact numbers.

Regarding `c1ccc2c(-c3c4ccccc4c(-c4cccc5ccccc45)c4ccccc34)cccc2c1` [BH1, reference compound], the “solubility with respect to methyl benzoate” value was under 2 wt %.
As for `[2H]c1c([2H])c([2H])c(-c2c3ccccc3c(-c3c(CCC)c4ccccc4c4ccccc34)c3ccccc23)c([2H])c1[2H]` [Compound 55], the solubility result by setting is: (ethyl benzoate) “◯”; (methyl benzoate) “◯”.
`CC(C)c1cc(-c2c3ccccc3c(-c3cc4ccccc4c4ccccc34)c3ccccc23)cc(C(C)C)c1` [Compound 46]: the solubility result reads like this: (ethyl benzoate) “◯”; (methyl benzoate) “◯”.
